Like-named read-outs stand apart in the source and are kept apart here.

Holding throughout (format): cell-based
One test has as its target T1, human TLR8 (Homo sapiens, UniProt Q9NR97).
T1 construct: host or cells: HEK-Blue cells (HEK293-derived reporter line)
T1 sequence (Q9NR97 27-1041): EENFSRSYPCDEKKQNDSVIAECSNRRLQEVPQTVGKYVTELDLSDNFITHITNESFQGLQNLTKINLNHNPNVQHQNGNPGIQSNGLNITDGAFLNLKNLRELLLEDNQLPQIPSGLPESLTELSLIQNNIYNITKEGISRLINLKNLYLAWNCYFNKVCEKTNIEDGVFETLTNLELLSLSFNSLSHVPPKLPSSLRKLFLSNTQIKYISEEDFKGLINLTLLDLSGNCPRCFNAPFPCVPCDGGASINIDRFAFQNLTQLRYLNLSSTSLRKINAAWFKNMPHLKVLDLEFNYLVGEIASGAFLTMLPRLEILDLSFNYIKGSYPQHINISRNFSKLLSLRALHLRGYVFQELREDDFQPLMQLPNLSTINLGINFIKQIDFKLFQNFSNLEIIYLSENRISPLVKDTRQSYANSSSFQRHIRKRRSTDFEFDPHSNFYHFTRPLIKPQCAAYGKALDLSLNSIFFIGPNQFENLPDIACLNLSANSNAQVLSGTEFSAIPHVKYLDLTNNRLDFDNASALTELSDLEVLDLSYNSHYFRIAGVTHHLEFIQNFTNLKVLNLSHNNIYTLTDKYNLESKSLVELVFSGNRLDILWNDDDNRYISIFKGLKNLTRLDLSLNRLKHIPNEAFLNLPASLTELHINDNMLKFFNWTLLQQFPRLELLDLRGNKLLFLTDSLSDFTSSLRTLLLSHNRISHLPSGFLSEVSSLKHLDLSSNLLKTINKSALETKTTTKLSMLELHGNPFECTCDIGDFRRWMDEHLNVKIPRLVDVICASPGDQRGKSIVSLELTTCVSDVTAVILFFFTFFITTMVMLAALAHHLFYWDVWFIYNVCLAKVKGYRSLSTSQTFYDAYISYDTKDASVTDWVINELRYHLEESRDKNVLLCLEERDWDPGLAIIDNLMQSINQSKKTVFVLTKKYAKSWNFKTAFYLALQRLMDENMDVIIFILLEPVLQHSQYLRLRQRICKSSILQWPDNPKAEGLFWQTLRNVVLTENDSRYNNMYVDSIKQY
The test is described as follows: TLR8 inhibition reporter assay (HEK-Blue cells, secreted embryonic alkaline phosphatase reporter). As to conditions: HEK-Blue cells overexpressing human TLR8, stimulated with R848 15.9 μM; read-out: TLR 8 IC50. In outline:
(§1)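 HEK-Blue cells overexpressing the respective receptor, with an NF-κB/AP-1-driven SEAP reporter, were pre-treated with compound (0.05 nM–50 μM) for 30 min at room temperature. Stimulation used gardiquimod 7.5 μM (TLR7), R848 15.9 μM (TLR8) or ODN2006 5 nM (TLR9); SEAP was read after 22 h at 37 °C as percent inhibition.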
In general terms: In a reporter assay the amount or activity of a reporter protein is the signal.

For another test, the target named is T2, human TLR9 (Homo sapiens, UniProt Q9NR96).
T2 construct: host or cells: HEK-Blue cells (HEK293-derived reporter line)
T2 sequence (Q9NR96 26-1032): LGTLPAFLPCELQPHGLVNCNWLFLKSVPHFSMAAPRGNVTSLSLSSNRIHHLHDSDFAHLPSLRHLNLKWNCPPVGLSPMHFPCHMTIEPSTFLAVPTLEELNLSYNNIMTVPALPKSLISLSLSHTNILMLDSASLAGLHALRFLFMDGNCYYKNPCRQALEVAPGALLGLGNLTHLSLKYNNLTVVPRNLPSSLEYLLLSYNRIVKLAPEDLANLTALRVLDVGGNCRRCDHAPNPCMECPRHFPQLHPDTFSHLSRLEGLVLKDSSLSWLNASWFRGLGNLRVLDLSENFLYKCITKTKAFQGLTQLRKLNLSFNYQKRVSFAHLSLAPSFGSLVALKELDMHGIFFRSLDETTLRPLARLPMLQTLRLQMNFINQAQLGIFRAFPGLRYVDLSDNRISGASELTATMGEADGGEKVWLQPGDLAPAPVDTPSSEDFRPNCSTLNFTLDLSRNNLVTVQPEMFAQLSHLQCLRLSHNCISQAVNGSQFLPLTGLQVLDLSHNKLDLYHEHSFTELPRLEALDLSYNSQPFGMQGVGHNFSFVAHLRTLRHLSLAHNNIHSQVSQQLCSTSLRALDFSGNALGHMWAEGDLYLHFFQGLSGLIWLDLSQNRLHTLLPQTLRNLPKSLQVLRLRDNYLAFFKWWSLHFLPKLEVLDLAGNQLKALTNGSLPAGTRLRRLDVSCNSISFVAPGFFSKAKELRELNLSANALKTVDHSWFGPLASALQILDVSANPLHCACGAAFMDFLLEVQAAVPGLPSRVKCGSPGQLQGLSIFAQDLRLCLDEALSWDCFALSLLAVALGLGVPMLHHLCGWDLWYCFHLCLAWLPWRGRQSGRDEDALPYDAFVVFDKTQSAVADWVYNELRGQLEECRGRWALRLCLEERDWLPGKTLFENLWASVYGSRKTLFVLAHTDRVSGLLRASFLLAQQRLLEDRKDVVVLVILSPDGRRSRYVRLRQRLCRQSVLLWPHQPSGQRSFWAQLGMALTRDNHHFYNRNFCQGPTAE
The test is described as follows: TLR9 inhibition reporter assay (HEK-Blue cells, secreted embryonic alkaline phosphatase reporter). As to conditions: HEK-Blue cells overexpressing human TLR9, stimulated with ODN2006 5 nM. The method in brief:
as §1

The target in the next test is T3, human TLR7 (Homo sapiens, UniProt Q9NYK1).
T3 construct: host or cells: HEK-Blue cells (HEK293-derived reporter line)
T3 sequence (Q9NYK1 27-1049): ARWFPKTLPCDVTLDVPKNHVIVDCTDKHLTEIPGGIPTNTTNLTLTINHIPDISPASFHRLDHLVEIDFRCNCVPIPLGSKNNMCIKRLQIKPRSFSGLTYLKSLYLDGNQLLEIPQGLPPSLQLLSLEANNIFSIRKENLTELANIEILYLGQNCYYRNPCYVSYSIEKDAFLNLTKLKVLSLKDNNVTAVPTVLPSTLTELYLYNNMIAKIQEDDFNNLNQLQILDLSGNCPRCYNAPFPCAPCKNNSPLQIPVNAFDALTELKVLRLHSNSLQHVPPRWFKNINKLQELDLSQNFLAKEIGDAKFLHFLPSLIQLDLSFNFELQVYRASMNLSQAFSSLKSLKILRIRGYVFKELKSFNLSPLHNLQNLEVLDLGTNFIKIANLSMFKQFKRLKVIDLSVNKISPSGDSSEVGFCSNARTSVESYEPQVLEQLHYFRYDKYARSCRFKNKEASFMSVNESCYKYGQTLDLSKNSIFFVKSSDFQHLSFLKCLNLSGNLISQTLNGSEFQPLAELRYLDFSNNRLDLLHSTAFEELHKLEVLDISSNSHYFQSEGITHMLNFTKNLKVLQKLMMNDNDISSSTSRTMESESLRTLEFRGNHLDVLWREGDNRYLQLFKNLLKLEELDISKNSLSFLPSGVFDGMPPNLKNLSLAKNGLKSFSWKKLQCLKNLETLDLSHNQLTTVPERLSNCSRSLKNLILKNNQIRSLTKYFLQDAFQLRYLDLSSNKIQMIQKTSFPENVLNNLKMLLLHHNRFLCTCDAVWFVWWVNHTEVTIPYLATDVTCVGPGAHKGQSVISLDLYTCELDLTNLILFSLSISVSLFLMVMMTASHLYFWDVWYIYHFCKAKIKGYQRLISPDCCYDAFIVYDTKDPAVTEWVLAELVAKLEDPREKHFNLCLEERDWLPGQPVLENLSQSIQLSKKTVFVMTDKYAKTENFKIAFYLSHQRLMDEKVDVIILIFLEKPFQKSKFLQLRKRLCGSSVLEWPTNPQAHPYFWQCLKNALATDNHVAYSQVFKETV
The test is described as follows: TLR7 inhibition reporter assay (HEK-Blue cells, secreted embryonic alkaline phosphatase reporter). The conditions noted are these: HEK-Blue cells overexpressing human TLR7, stimulated with gardiquimod 7.5 μM; read-out: TLR 7 IC50. In outline: as §1

[1] abbreviates: 22 hour incubation, reporter readout.

By IC50 is commonly meant the concentration that inhibits the measured activity by half. For `COc1ccc(-c2nc3cc(C4CCN(C5CCN(C(C)C)CC5)CC4)ccc3n2C(C)C)cc1OC` [Example 6, 2-(3,4-dimethoxyphenyl)-1-isopropyl-5-(1′-isopropyl-[1,4′-bipiperidin]-4-yl)-1H-benzo[d]imidazole], the 50% inhibitory concentration (IC50) at human TLR8 was determined as 29000 nM; on human TLR9 (setting [1]) it was 190 nM; on human TLR9 (read-out: TLR 9 IC50), 191 nM; on human TLR7, 2900 nM.
For `COc1ccc(-c2nc3cc(C4CCN(C5CCN(C(C)C)CC5)CC4)ccc3n2CC(F)F)cc1OC` [Example 7, 1-(2,2-difluoroethyl)-2-(3,4-dimethoxyphenyl)-5-(1′-isopropyl-[1,4′-bipiperidin]-4-yl)-1H-benzo[d]imidazole], the IC50 on human TLR8 is greater than 50000 nM; on human TLR9 (setting [1]), 280 nM; on human TLR9 (read-out: TLR 9 IC50), 283 nM; on human TLR7 it was 5700 nM.
On the same counts, the results for `COc1ccc(-c2nc3cc(C4CCN(C5CCN(C(C)C)CC5)CC4)c(C(F)(F)F)cc3[nH]2)cc1OC` [Example 10, 2-(3,4-dimethoxyphenyl)-5-(1′-isopropyl-[1,4′-bipiperidin]-4-yl)-6-(trifluoromethyl)-1H-benzo[d]imidazole] are greater than 50000 nM, 240 nM, 244 nM and greater than 50000 nM.
Regarding `COc1ccc(-c2nc3c(C)cc(C4CCN(C5CCN(C(C)C)CC5)CC4)cc3[nH]2)cc1OC` [Example 11, 2-(3,4-dimethoxyphenyl)-6-(1′-isopropyl-[1,4′-bipiperidin]-4-yl)-4-methyl-1H-benzo[d]imidazole], the IC50 is greater than 50000 nM on human TLR8, 33 nM at human TLR9 (setting [1]) and 5000 nM on human TLR7.
In the case of `COc1ccc(-c2nc3c(C)cc(C4CCN(C5CC6(C5)CN(C(C)C)C6)CC4)cc3[nH]2)cc1OC` [Example 12, 2-(3,4-dimethoxyphenyl)-6-(1-(2-isopropyl-2-azaspiro[3.3]heptan-6-yl)piperidin-4-yl)-4-methyl-1H-benzo[d]imidazole], the IC50 at human TLR8 was greater than 50000 nM; against human TLR9 (setting [1]) it was 60 nM; on human TLR7, 22000 nM.
For the molecule `COc1ccc(-c2nc3c(C)cc(C4CCN(C5CCNCC5)CC4)cc3[nH]2)cc1OC` [Example 13, 6-([1,4′-bipiperidin]-4-yl)-2-(3,4-dimethoxyphenyl)-4-methyl-1H-benzo[d]imidazole tris(2,2,2-trifluoroacetate)], the IC50 on human TLR8 was greater than 50000 nM; at human TLR9 (setting [1]) it was 620 nM; on human TLR9 (read-out: TLR 9 IC50), 617 nM; on human TLR7, greater than 50000 nM.
Take `COc1ccc(-c2nc3c(C)cc(C4CCN(C5CCN(C(=O)C(C)C)CC5)CC4)cc3[nH]2)cc1OC` [Example 14, 1-(4-(2-(3,4-dimethoxyphenyl)-4-methyl-1H-benzo[d]imidazol-6-yl)-[1,4′-bipiperidin]-1′-yl)-2-methylpropan-1-one]: the half-inhibitory concentration (IC50) on human TLR8 is greater than 50000 nM; on human TLR9 (setting [1]), 510 nM; at human TLR9 (read-out: TLR 9 IC50), 509 nM; at human TLR7, greater than 50000 nM.
With `COc1ccc(-c2nc3c(C)cc(C4CCN(C5CCN(CC(C)C)CC5)CC4)cc3n2C)cc1OC` [Example 15, 2-(3,4-dimethoxyphenyl)-6-(1′-isobutyl-[1,4′-bipiperidin]-4-yl)-1,4-dimethyl-1H-benzo[d]imidazole tris(2,2,2-trifluoroacetate)], the IC50 on human TLR8 was greater than 50000 nM; at human TLR9 (setting [1]), 19 nM; at human TLR7, 7100 nM.
With `COc1ccc(-c2nc3c(C)cc(C4CCN(C5CC6(C5)CN(C(C)C)C6)CC4)cc3n2C)cc1OC` [Example 16, 2-(3,4-dimethoxyphenyl)-6-(1-(2-isopropyl-2-azaspiro[3.3]heptan-6-yl)piperidin-4-yl)-1,4-dimethyl-1H-benzo[d]imidazole tris(2,2,2-trifluoroacetate)], the IC50 is greater than 50000 nM on human TLR8, 100 nM on human TLR9 (setting [1]), 10.4 nM on human TLR9 (read-out: TLR 9 IC50) and 10000 nM on human TLR7.
With `Cc1cc(C2CCN(C3CCN(C(C)C)CC3)CC2)cc2c1nc(-c1ccc(S(C)(=O)=O)cc1)n2C` [Example 22, 6-(1′-isopropyl-[1,4′-bipiperidin]-4-yl)-1,4-dimethyl-2-(4-(methylsulfonyl)phenyl)-1H-benzo[d]imidazole], the IC50 was greater than 50000 nM on human TLR8, 7.6 nM on human TLR9 (setting [1]) and 24000 nM at human TLR7.
Turning to `COc1ccc(-c2nc3c(C)cc(C4CCN(C5CCN(C(C)C)CC5)CC4)cc3n2C)cc1F` [Example 23, 2-(3-fluoro-4-methoxyphenyl)-6-(1′-isopropyl-[1,4′-bipiperidin]-4-yl)-1,4-dimethyl-1H-benzo[d]imidazole], the IC50 is greater than 50000 nM on human TLR8, 160 nM against human TLR9 (setting [1]), 159 nM at human TLR9 (read-out: TLR 9 IC50) and 8800 nM on human TLR7.

The record behind these values is patent US12492188B2, “1H-benzo[D]imidazole derivatives as TLR9 inhibitors for the treatment of fibrosis” (BRISTOL-MYERS SQUIBB COMPANY, priority 2020, dated 2025).
